From patent US20250186458A1, “METHODS FOR THE TREATMENT OF MILD COGNITIVE IMPAIRMENT” (BIOVIE INC., priority 2022, published 2025)

What was measured:
subjects with dementia = test: Trial in subjects with dementia (CDR 1-2, MMSE 14-24), Aptus positive and negative; type: in vivo, human
Description: In a trial, the relationship between Clinical Dementia Rating Scale (CDR) and Mini Mental State Exam (MMSE) scores with measures of obesity, including Body Mass Index (BMI), Waist Circumference (WC), and waist-to-hip ratio (W/H) was explored with administration of 17α-ethynylandrost-5-ene-3β,7β,17β-triol. The trial sought to explore the anti-inflammatory and insulin sensitizing activity of 17α-ethynylandrost-5-ene-3β,7β,17β-triol in subjects with dementia, using inclusion criteria of the CDR levels 1-2 and the MMSE scores of 14-24 for inclusion criteria.
In this trial, the correlation between CDR (1-2) and MMSE (14-24) scores and the presence or absence of amyloid by the Aptus test, and also the presence of absence of metabolic inflammation using markers of obesity and metabolic inflammation was explored.
With Aptus data available for 96 subjects that met the criteria for CDR and MMSE, only 35 subjects (36%) met the Aptus criteria. When measures of obesity were examined, BMI was available for 149 subjects. Due to the age-related decrease in muscle mass, only 60 (40%) of the subjects met the CDC criteria (male BMI >40, Female BMI >35) for obesity. These restrictions would severely limit enrollment. […]

[1] = test system: patients with mild or moderate dementia; test: Exploratory Phase 2 trial NE3107-TRP-001 (ADAS-Cog 11, GRC, PHQ-9); type: in vivo, human; set-up: key to ADAS-Cog-11 score at 3M: ADAS-Cog11 score 0-70; higher = more severe cognitive impairment; settings: for Patient Global Rating of Change (GRC): Month 3, scale −5 to 5; for ADAS-Cog-11 Change: baseline to 3M, decrease = improvement
Description: An exploratory Phase 2 trial of 17α-ethynylandrost-5-ene-3β,7β,17β-triol (NE3107-TRP-001) in 23 patients with mild (n=17) or moderate dementia (n=6) were conducted. Comparisons between baseline and post-intervention (3 months) were evaluated via multi-modal brain magnetic resonance images (MRIs; primary endpoints), measures of glucose and insulin homeostasis, and neuropsychological testing (secondary endpoints).
The interview results were compared with changes from baseline to Month 3 in cognitive functioning as measured by the ADAS-Cog11, and the patient-completed Global Rating of Change (GRC) at Month 3 in the Phase 2 trial (Table 8).
The ADAS-Cog 11 is a performance-based assessment of cognitive function that includes 11 patient-completed tasks that measure word recall, objective/figure naming, command following, constructional praxis, ideational praxis, orientation, word recognition, test direction recall, spoken language, comprehension, and word-finding difficulty. Scores range from 0-70 where higher scores indicate more severe cognitive impairment (i.e., decreases in score over time indicate improvement in cognition). The GRC is a single item that asks patients to rate changes in their condition, abilities, and overall sense of well-being from the start of the trial. Scores range from −5 (“Very much worse”) to 0 (“Unchanged”) to +5 (“Very much better”).

C#C[C@]1(O)CC[C@H]2[C@@H]3[C@@H](O)C=C4C[C@@H](O)CC[C@]4(C)[C@H]3CC[C@@]21C [17α-ethynylandrost-5-ene-3β,7β,17β-triol, 17-ethynyl-10R, 13S-dimethyl 2,3,4,7, 8R, 9S, 10, 11, 12, 13, 14S, 15, 16, 17-hexadecahydro-1H-cyclopenta[a]phenanthrene-3R, 7R, 17S-triol]
cognition (subjects with dementia): improvements in cognition independent of amyloid beta positivity | increase in ADAS-Cog 11 score, where not decreased ([1]; all interviewed patients, 3-month follow up, 3.1 to 3.8 points = clinically significant worsening): < 3.1 points | mean PHQ-9 score decrease ([1]; change from baseline): 4.3 points | improvement in depression symptoms (PHQ-9) ([1]; patients with baseline PHQ-9 score ≥5): greatest improvement in depression symptoms | individual PHQ-9 domains (apathy, depressive symptoms, sleep disturbance, fatigue, eating disorders, low self-esteem) ([1]; patients with baseline PHQ-9 score ≥5 compared to all patients): greater improvement, compared to all patients | Global Rating of Change (GRC) ([1]; patients with mild dementia, 3 months): improvements on the Global Rating of Change | ADAS-Cog 11 decrease ([1]; patients with mild dementia, baseline vs 3 months, p=0.0046): 2.6 point | Patient Global Rating of Change (GRC) ([1]; subject N-02-22): −5 | ADAS-Cog-11 score at 3M ([1]; subject N-02-22, baseline 5.00): 5.67 | ADAS-Cog-11 Change ([1]; subject N-02-22): +0.67 | Patient Global Rating of Change (GRC) ([1]; subject N-03-22): 3.5 | ADAS-Cog-11 score at 3M ([1]; subject N-03-22, baseline 11.33): 6.00 | ADAS-Cog-11 Change ([1]; subject N-03-22): −5.33 | Patient Global Rating of Change (GRC) ([1]; subject N-07-22): 1 | ADAS-Cog-11 score at 3M ([1]; subject N-07-22, baseline 19.33): 14.67 | ADAS-Cog-11 Change ([1]; subject N-07-22): −4.67 | Comparison (ADAS-Cog 11/GRC/Interview) ([1]; subject N-10-22): +/−/NC | Patient Global Rating of Change (GRC) ([1]; subject N-10-22): −1 | ADAS-Cog-11 score at 3M ([1]; subject N-10-22, baseline 5.00): 2.33 | ADAS-Cog-11 Change ([1]; subject N-10-22): −2.67 | Comparison (ADAS-Cog 11/GRC/Interview) ([1]; subject N-14-22): +/+/NC | Patient Global Rating of Change (GRC) ([1]; subject N-14-22): 2 | ADAS-Cog-11 score at 3M ([1]; subject N-14-22, baseline 14.00): 9.00 | ADAS-Cog-11 Change ([1]; subject N-14-22): −5.00 | Patient Global Rating of Change (GRC) ([1]; subject N-16-22): 4 | ADAS-Cog-11 score at 3M ([1]; subject N-16-22, baseline 21.00): 11.00 | ADAS-Cog-11 Change ([1]; subject N-16-22): −10.00 | Patient Global Rating of Change (GRC) ([1]; subject N-17-22): 4 | ADAS-Cog-11 score at 3M ([1]; subject N-17-22, baseline 6.67): 9.33 | ADAS-Cog-11 Change ([1]; subject N-17-22): +2.67 | Patient Global Rating of Change (GRC) ([1]; subject N-18-22): 4 | ADAS-Cog-11 score at 3M ([1]; subject N-18-22, baseline 10.00): 8.67 | ADAS-Cog-11 Change ([1]; subject N-18-22): −1.33 | Patient Global Rating of Change (GRC) ([1]; subject N-20-22): 3 | ADAS-Cog-11 score at 3M ([1]; subject N-20-22, baseline 4.00): 3.33 | ADAS-Cog-11 Change ([1]; subject N-20-22): −0.67 | Patient Global Rating of Change (GRC) ([1]; subject N-22-22): 5 | ADAS-Cog-11 score at 3M ([1]; subject N-22-22, baseline 27.67): 29.00 | ADAS-Cog-11 Change ([1]; subject N-22-22): +1.33 | Patient Global Rating of Change (GRC) ([1]; subject N-23-22): 3 | ADAS-Cog-11 score at 3M ([1]; subject N-23-22, baseline 9.33): 10.00 | ADAS-Cog-11 Change ([1]; subject N-23-22): +0.67
